Non-standard residues stand in square brackets, D forms with d. Residues, ends and D or L forms follow the SMILES beside them. pGlu = O=C1CC[C@@H](C(=O)O)N1

In the series the test system is human islets. The series can be described thus: Islet viability and morphology assessment (PI/HO or FDA, DTZ staining). Format: cell-based. The note with it: 4 weeks in 3D hydrogel with 100 nM gastrin. The method, then: Islet cells were stained with 10 μg/mL propidium iodide (PI) (Millipore Sigma, St. Louis, MO, USA) and 10 μg/mL of Hoechst 33342 (HO) (Thermo Fisher Scientific, Waltham, MA) for 5 minutes at room temperature, washed with PBS, then placed on a 6-well plate. The images of PI/HO staining were taken under a IXDP50 Olympus fluorescent microscope with DP74 camera using a 4× objective lens (Olympus America). Viability was determined by the area of PI staining divided by the area of HO staining analyzed by CellSens software. For the experiment with gastrin culture, 0.5 μM Fluorescein diacetate (FDA) solution (Millipore Sigma) was used instead of HO to determine the viable total islets. The viability was determined by the area of PI staining divided by the total islet area analyzed by CellSens software. Islet morphology was evaluated by dithizone (DTZ) staining.

Compound `CC(C)C[C@H](NC(=O)[C@H](Cc1c[nH]c2ccccc12)NC(=O)CNC(=O)[C@H](Cc1ccc(O)cc1)NC(=O)[C@H](C)NC(=O)[C@H](CCC(=O)O)NC(=O)[C@H](CCC(=O)O)NC(=O)[C@H](CCC(=O)O)NC(=O)[C@H](CCC(=O)O)NC(=O)[C@H](CCC(=O)O)NC(=O)[C@H](CC(C)C)NC(=O)[C@H](Cc1c[nH]c2ccccc12)NC(=O)[C@@H]1CCCN1C(=O)CNC(=O)[C@@H]1CCC(=O)N1)C(=O)N[C@@H](CC(=O)O)C(=O)N[C@@H](Cc1ccccc1)C(N)=O` [gastrin, [Leu15]-gastrin I] ([pGlu]GPWLEEEEEAYGWLDF-NH2) came in with an islet viability of 92±6%.

For the origin of these results see patent US20230407265A1, “COMPOSITION AND METHODS FOR 3D CULTURE OF ISLET CELLS” (CITY OF HOPE, priority 2022, published 2023).
